{"source": "patent US6015809A", "about": "(priority 1999, dated 2000)", "format_in_all_cases": "cell-based", "key": {"[1]": {"test_system": "SKBR3 (breast) tumor cells", "test": "Antineoplastic activity in vitro, tumor cell growth (sulforhrodamine B)", "settings": "SKBR3, 48 hours", "from_the_text": "(§1) Antineoplastic activity for the compounds of this invention was established by evaluating the antineoplastic activity of a representative compound of this invention (Compound I) against six tumor cell lines in vitro. Briefly, tumor cells from six cell lines were placed in wells of a 96 well microtiter plate. The following tumor cell lines were used: A2780S (ovarian), A2780DDP (ovarian--resistant to cis-platin), A431 (vulva epidermoid origin), SW620 (colon), SKBR3 (breast), and MDA-MB-435 (breast). The tumors cells were grown in the presence of serial dilutions of the compound to be evaluated for 48 hours, and cell growth determined using a colorimetric procedure (sulforhrodamine B). The inhibition of growth was calculated compared to the number of cells at the time of test compound addition. Results are expressed as an IC50 (μg/ml). […] In particular, the compounds of this invention are useful against solid tumors, including sarcomas and carcinomas; and more particularly against astrocytomas, prostate cancer, breast cancer, colon cancer, small cell lung cancer, and ovarian cancer; and adult T-cell leukemia/lymphoma."}, "[2]": {"test_system": "MDA-MB-435 (breast) tumor cells", "test": "Antineoplastic activity in vitro, tumor cell growth (sulforhrodamine B)", "settings": "MDA-MB-435, 48 hours", "from_the_text": "as §1"}, "[3]": {"test_system": "SW620 (colon) tumor cells", "test": "Antineoplastic activity in vitro, tumor cell growth (sulforhrodamine B)", "settings": "SW620, 48 hours", "from_the_text": "as §1"}, "[4]": {"test_system": "A431 (vulva epidermoid origin) tumor cells", "test": "Antineoplastic activity in vitro, tumor cell growth (sulforhrodamine B)", "settings": "A431, 48 hours", "from_the_text": "as §1"}, "[5]": {"test_system": "A2780S (ovarian) tumor cells", "test": "Antineoplastic activity in vitro, tumor cell growth (sulforhrodamine B)", "settings": "48 hours", "from_the_text": "as §1"}, "[6]": {"test_system": "A2780DDP (ovarian--resistant to cis-platin) tumor cells", "test": "Antineoplastic activity in vitro, tumor cell growth (sulforhrodamine B)", "settings": "48 hours", "from_the_text": "as §1"}, "[7]": {"test_system": "Cryptococcus neoformans", "test": "Antifungal activity, MIC microdilution", "settings": "strain ATCC 90112; RPMI 1640, 35° C., 24-48 hours", "protocol": "(§2) Antifungal activity for the compounds of this invention was established by evaluating a representative compound of this invention (Compound I) against several strains of fungi. Briefly the following procedure was used to evaluate such activity. A 96 U-bottom microtiter plate was filled (50 μl/well) with RPMI 1640. The compounds to be evaluated were placed in appropriate wells, and serial diluted in successive wells to provide 11 dilutions. The concentrations ranged from 64 through 0.06 μg/ml. An adjusted inoculum of fungi (50 μl) was added to each well and the plates were incubated at 35° C. for 24-48 hours."}, "[8]": {"test_system": "Filobasidiella neoformans", "test": "Antifungal activity, MIC microdilution", "settings": "strain ATCC 7472; RPMI 1640, 35° C., 24-48 hours", "protocol": "as §2"}, "[9]": {"test_system": "Aspergillus fumigatus", "test": "Antifungal activity, MIC microdilution", "settings": "strain ATCC 26933; RPMI 1640, 35° C., 24-48 hours", "protocol": "as §2"}, "[10]": {"test_system": "Candida glabrata", "test": "Antifungal activity, MIC microdilution", "settings": "strain ATCC 90030; RPMI 1640, 35° C., 24-48 hours", "protocol": "as §2"}, "[11]": {"test_system": "Candida parapsilosis", "test": "Antifungal activity, MIC microdilution", "settings": "RPMI 1640, 35° C., 24-48 hours", "protocol": "as §2"}, "[12]": {"test_system": "Candida tropicalis", "test": "Antifungal activity, MIC microdilution", "settings": "RPMI 1640, 35° C., 24-48 hours", "protocol": "as §2"}, "[13]": {"test_system": "Candida krussii", "test": "Antifungal activity, MIC microdilution", "settings": "strain 94-2; RPMI 1640, 35° C., 24-48 hours", "protocol": "as §2"}, "[14]": {"test_system": "Candida lusitaniae", "test": "Antifungal activity, MIC microdilution", "settings": "strain 94-3; RPMI 1640, 35° C., 24-48 hours", "protocol": "as §2, with “Briefly” for “Antifungal activity for the compounds of this invention was established by evaluating a representative compound of this invention (Compound I) against several strains of fungi. Briefly”"}, "[15]": {"test_system": "Candida pseudotropicalis", "test": "Antifungal activity, MIC microdilution", "settings": "strain ATCC 28838; RPMI 1640, 35° C., 24-48 hours", "protocol": "as §2, with “Briefly” for “Antifungal activity for the compounds of this invention was established by evaluating a representative compound of this invention (Compound I) against several strains of fungi. Briefly”"}, "[16]": {"test_system": "Candida albicans", "test": "Antifungal activity, MIC microdilution", "settings": "RPMI 1640, 35° C., 24-48 hours", "protocol": "as §2, with “Briefly” for “Antifungal activity for the compounds of this invention was established by evaluating a representative compound of this invention (Compound I) against several strains of fungi. Briefly”"}, "[17]": {"test_system": "Candida rugosa", "test": "Antifungal activity, MIC microdilution", "settings": "strain 94-10; RPMI 1640, 35° C., 24-48 hours", "protocol": "as §2, with “Briefly” for “Antifungal activity for the compounds of this invention was established by evaluating a representative compound of this invention (Compound I) against several strains of fungi. Briefly”"}, "[18]": {"test_system": "Candida zeylanoided", "test": "Antifungal activity, MIC microdilution", "settings": "strain 94-15; RPMI 1640, 35° C., 24-48 hours", "protocol": "as §2, with “Briefly” for “Antifungal activity for the compounds of this invention was established by evaluating a representative compound of this invention (Compound I) against several strains of fungi. Briefly”"}, "[19]": {"test_system": "Aspergillus niger", "test": "Antifungal activity, MIC microdilution", "settings": "strain S-430; RPMI 1640, 35° C., 24-48 hours", "protocol": "as §2, with “Briefly” for “Antifungal activity for the compounds of this invention was established by evaluating a representative compound of this invention (Compound I) against several strains of fungi. Briefly”"}, "[20]": {"test_system": "Saccharomyces cerevisiae", "test": "Antifungal activity, MIC microdilution", "settings": "strain ATCC 2601; RPMI 1640, 35° C., 24-48 hours", "protocol": "as §2, with “Briefly” for “Antifungal activity for the compounds of this invention was established by evaluating a representative compound of this invention (Compound I) against several strains of fungi. Briefly”"}, "[21]": {"test_system": "Aspergillus flavus", "test": "Antifungal activity, MIC microdilution", "settings": "strain ATCC 12963; RPMI 1640, 35° C., 24-48 hours", "protocol": "as §2, with “Briefly” for “Antifungal activity for the compounds of this invention was established by evaluating a representative compound of this invention (Compound I) against several strains of fungi. Briefly”"}}}
{"smiles": "CO[C@H]1C[C@@H]2CC[C@@H](C)[C@@](O)(O2)[C@]2(O)C(=O)N3[C@@H](CCC[C@@H]32)C(=O)O[C@H]([C@H](C)C[C@@H]2CC[C@@H](O)[C@H](OC)C2)CC(=O)[C@H](C)/C=C(\\C)[C@@H](O)[C@@H](OC)C(=O)[C@H](C)C[C@H](C)/C=C/C=C/C=C/1C", "note": "[Compound I, (1S,2R,3R,6S,8S,9E,11E,13E,15S,17R,19R,20R,21E,23R,26S,29S,33R)-1,2,30-Trihydroxy-26-[(1R)-2-[(1S,3R,4R)4-hydroxy-3-methoxycyclohexyl]-1-methylethyl]-8,19-dimethoxy-3,9,15,17,21,23-hexamethyl-27,36-dioxa-35-azatetracyclo[27.4.2.1.[2,6].0[33,35]]hexatriaconta-9,11,13,21-tetraene-18,24,28,34-tetrone]", "values": [{"measurement": "IC50 (inhibition of growth)", "setting": "[1]", "result": 7.029, "unit": "µg/mL"}, {"measurement": "IC50 (inhibition of growth)", "setting": "[2]", "result": 27.28, "unit": "µg/mL"}, {"measurement": "IC50 (inhibition of growth)", "setting": "[3]", "result": 24.84, "unit": "µg/mL"}, {"measurement": "IC50 (inhibition of growth)", "setting": "[4]", "result": 20.46, "unit": "µg/mL"}, {"measurement": "IC50 (inhibition of growth)", "setting": "[5]", "result": 8.756, "unit": "µg/mL"}, {"measurement": "IC50 (inhibition of growth)", "setting": "[6]", "result": 6.51, "unit": "µg/mL"}, {"measurement": "MIC", "setting": "[7]", "result": 8, "unit": "µg/mL"}, {"measurement": "MIC", "setting": "[8]", "result": "≥ 64", "unit": "µg/mL"}, {"measurement": "MIC", "setting": "[9]", "result": "≥ 64", "unit": "µg/mL"}, {"measurement": "MIC", "setting": "[10]", "result": 8, "unit": "µg/mL"}, {"measurement": "MIC", "setting": "[11]; strain 94-8", "result": 8, "unit": "µg/mL"}, {"measurement": "MIC", "setting": "[11]; strain 94-9", "result": 8, "unit": "µg/mL"}, {"measurement": "MIC", "setting": "[11]; strain ATCC 90018", "result": 8, "unit": "µg/mL"}, {"measurement": "MIC", "setting": "[12]; strain 94-13", "result": 16, "unit": "µg/mL"}, {"measurement": "MIC", "setting": "[12]; strain 94-14", "result": 8, "unit": "µg/mL"}, {"measurement": "MIC", "setting": "[13]", "result": "≥ 64", "unit": "µg/mL"}, {"measurement": "MIC", "setting": "[14]", "result": 4, "unit": "µg/mL"}, {"measurement": "MIC", "setting": "[15]", "result": 4, "unit": "µg/mL"}, {"measurement": "MIC", "setting": "[16]; strain 94-1", "result": 16, "unit": "µg/mL"}, {"measurement": "MIC", "setting": "[16]; strain 1063", "result": 16, "unit": "µg/mL"}, {"measurement": "MIC", "setting": "[16]; strain 1117", "result": 32, "unit": "µg/mL"}, {"measurement": "MIC", "setting": "[16]; strain ATCC 90028", "result": 16, "unit": "µg/mL"}, {"measurement": "MIC", "setting": "[16]; strain C-83", "result": "≥ 64", "unit": "µg/mL"}, {"measurement": "MIC", "setting": "[17]", "result": 16, "unit": "µg/mL"}, {"measurement": "MIC", "setting": "[18]", "result": 8, "unit": "µg/mL"}, {"measurement": "MIC", "setting": "[19]", "result": "≥ 64", "unit": "µg/mL"}, {"measurement": "MIC", "setting": "[20]", "result": 8, "unit": "µg/mL"}, {"measurement": "MIC", "setting": "[21]", "result": "≥ 64", "unit": "µg/mL"}]}
